The cell lines below were run with CC(O)(CS(=O)(=O)c1ccc(F)cc1)C(=O)Nc1ccc(C#N)c(C(F)(F)F)c1 [Bicalutamide] + CC(=O)Nc1cccc(-n2c(=O)n(C3CC3)c(=O)c3c(Nc4ccc(I)cc4F)n(C)c(=O)c(C)c32)c1 [Trametinib] (partner 0.02 µM) (assay: relative viability (nuclei count vs DMSO), 5 days (fraction); higher = more cells survive). Details: first compound 2.53 µM.
Outline: (§1)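 Relative viability was taken as the ratio of nuclei in treated wells to nuclei in vehicle wells. Lung cancer cell lines in 1536-well plates received compounds by pin tool one day after seeding, either one drug alone or a fixed anchor-drug dose plus five library-drug doses (not always all listed) in √10 steps. Nuclei were counted on 4× images after 5 days of treatment, and values are medians of duplicate plates.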
PC-14 showed a relative viability of 0.72.
In the case of LCLC-103H, the relative viability was 0.704.
In the case of NCI-H596, the relative viability was 0.952.
Work on NCI-H2228 yielded a relative viability of 0.34.
In the case of HCC-366, the relative viability was 0.284.
NCI-H2342 gave a relative viability of 0.805.
In the case of ChaGo-K-1, the relative viability was 0.926.
NCI-H2170 was tested, and the relative viability was 0.931.
Cell Line SW 900 has a relative viability of 0.809.
In the case of NCI-H1648, the relative viability was 0.546.
For HCC-78, the relative viability was 0.779.

The cell lines below were run with CC(O)(CS(=O)(=O)c1ccc(F)cc1)C(=O)Nc1ccc(C#N)c(C(F)(F)F)c1 [Bicalutamide] + CCNC(=O)c1noc(-c2cc(C(C)C)c(O)cc2O)c1-c1ccc(CN2CCOCC2)cc1 [Luminespib] (partner 0.01 µM) in the same assay as above. Details: first compound 0.08 µM.
Outline: as §1
NCI-H522 showed a relative viability of 1.07.
Cell Line NCI-H838 has a relative viability of 0.282.
In the case of NCI-H1650, the relative viability was 0.181.
In the case of NCI-H2009, the relative viability was 1.06.
NCI-H1993 showed a relative viability of 0.835.
PC-14 showed a relative viability of 0.16.
LCLC-103H showed a relative viability of 1.02.
With NCI-H596 the relative viability was 1.08.
For NCI-H2228, the relative viability was 0.231.
Cell Line NCI-H2342 has a relative viability of 0.682.
With ChaGo-K-1 the relative viability was 0.704.
Cell Line NCI-H2170 has a relative viability of 0.689.
Work on SW 900 yielded a relative viability of 0.175.
In the case of NCI-H1563, the relative viability was 0.529.
Cell Line ABC-1 has a relative viability of 0.558.

Same assay, conditions: first compound 0.253 µM
NCI-H522 was tested, and the relative viability was 1.14.
NCI-H1623 showed a relative viability of 0.647.
NCI-H838 gave a relative viability of 0.226.
Cell Line NCI-H1650 has a relative viability of 0.165.
NCI-H2009 was tested, and the relative viability was 1.01.
NCI-H1993 was tested, and the relative viability was 0.894.
Cell Line PC-14 has a relative viability of 0.148.
Work on LCLC-103H yielded a relative viability of 0.906.
For NCI-H596, the relative viability was 0.945.
With NCI-H2228 the relative viability was 0.241.
NCI-H2342 was tested, and the relative viability was 0.752.
ChaGo-K-1 was tested, and the relative viability was 0.717.
In the case of NCI-H2170, the relative viability was 0.527.
SW 900 gave a relative viability of 0.153.
For NCI-H1563, the relative viability was 0.552.
For ABC-1, the relative viability was 0.296.

Same assay, conditions: first compound 0.8 µM
Work on NCI-H522 yielded a relative viability of 1.45.
In the case of NCI-H1623, the relative viability was 0.596.
Work on NCI-H838 yielded a relative viability of 0.331.
Work on NCI-H1650 yielded a relative viability of 0.171.
Cell Line NCI-H2009 has a relative viability of 0.987.
Cell Line NCI-H1993 has a relative viability of 1.07.
In the case of PC-14, the relative viability was 0.198.
Work on LCLC-103H yielded a relative viability of 1.04.
NCI-H596 gave a relative viability of 1.28.
Cell Line NCI-H2228 has a relative viability of 0.169.
NCI-H2342 showed a relative viability of 0.746.
For ChaGo-K-1, the relative viability was 0.513.
NCI-H2170 showed a relative viability of 0.588.
SW 900 gave a relative viability of 0.172.
NCI-H1563 showed a relative viability of 0.567.
Work on ABC-1 yielded a relative viability of 0.749.

Same assay, conditions: first compound 2.53 µM
Work on NCI-H522 yielded a relative viability of 1.17.
NCI-H1623 showed a relative viability of 0.459.
NCI-H838 gave a relative viability of 0.309.
Cell Line NCI-H1650 has a relative viability of 0.196.
For NCI-H2009, the relative viability was 1.04.
NCI-H1993 was tested, and the relative viability was 0.999.
Work on PC-14 yielded a relative viability of 0.137.
With LCLC-103H the relative viability was 0.928.
Cell Line NCI-H596 has a relative viability of 1.14.
In the case of NCI-H2228, the relative viability was 0.14.
NCI-H2342 was tested, and the relative viability was 0.729.
ChaGo-K-1 showed a relative viability of 0.622.
Cell Line NCI-H2170 has a relative viability of 0.591.
Work on SW 900 yielded a relative viability of 0.17.
NCI-H1563 gave a relative viability of 0.515.
Work on ABC-1 yielded a relative viability of 0.596.

These cell lines were tested with CC(O)(CS(=O)(=O)c1ccc(F)cc1)C(=O)Nc1ccc(C#N)c(C(F)(F)F)c1 [Bicalutamide] + C[C@]1(O)C[C@@H](c2nc(-c3ccc4ccc(-c5ccccc5)nc4c3)c3c(N)nccn32)C1 [Linsitinib] (partner 1 µM) in the same assay as above. Details: first compound 0.08 µM.
Outline: as §1
With NCI-H838 the relative viability was 0.962.
EBC-1 gave a relative viability of 0.874.
NCI-H1703 gave a relative viability of 0.815.
Cell Line NCI-H2009 has a relative viability of 1.19.
For PC-14, the relative viability was 0.968.
For LCLC-103H, the relative viability was 1.04.
NCI-H596 was tested, and the relative viability was 1.09.
NCI-H2228 showed a relative viability of 0.627.
Work on Calu-6 yielded a relative viability of 0.972.
For HCC-366, the relative viability was 0.659.
IA-LM gave a relative viability of 0.823.
In the case of A549, the relative viability was 0.567.
For HCC-78, the relative viability was 0.585.
Cell Line NCI-H1299 has a relative viability of 1.04.
In the case of NCI-H1563, the relative viability was 1.28.
For ABC-1, the relative viability was 0.912.

Same assay, conditions: first compound 0.253 µM
NCI-H838 gave a relative viability of 1.
Cell Line EBC-1 has a relative viability of 0.874.
In the case of NCI-H1703, the relative viability was 0.79.
NCI-H2009 gave a relative viability of 1.12.
NCI-H1993 showed a relative viability of 0.77.
Work on PC-14 yielded a relative viability of 0.967.
LCLC-103H showed a relative viability of 1.04.
NCI-H596 showed a relative viability of 0.968.
Cell Line NCI-H2228 has a relative viability of 0.573.
With Calu-6 the relative viability was 0.999.
Cell Line HCC-366 has a relative viability of 0.541.
IA-LM was tested, and the relative viability was 0.641.
For A549, the relative viability was 0.531.
With HCC-78 the relative viability was 0.462.
Work on NCI-H1299 yielded a relative viability of 1.03.
In the case of NCI-H1563, the relative viability was 1.2.
With ABC-1 the relative viability was 0.889.

Same assay, conditions: first compound 0.8 µM
With NCI-H838 the relative viability was 1.
For EBC-1, the relative viability was 1.05.
For NCI-H1703, the relative viability was 0.833.
NCI-H2009 was tested, and the relative viability was 1.16.
For NCI-H1993, the relative viability was 0.707.
PC-14 showed a relative viability of 0.976.
Cell Line LCLC-103H has a relative viability of 1.14.
NCI-H596 gave a relative viability of 1.25.
Cell Line NCI-H2228 has a relative viability of 0.824.
Calu-6 was tested, and the relative viability was 1.12.
HCC-366 gave a relative viability of 0.905.
In the case of IA-LM, the relative viability was 0.616.
A549 gave a relative viability of 0.696.
Cell Line HCC-78 has a relative viability of 0.599.
NCI-H1299 showed a relative viability of 1.17.
In the case of NCI-H1563, the relative viability was 1.12.
ABC-1 was tested, and the relative viability was 0.768.

Same assay, conditions: first compound 2.53 µM
Work on NCI-H838 yielded a relative viability of 0.827.
With EBC-1 the relative viability was 0.858.
For NCI-H1703, the relative viability was 0.495.
Work on NCI-H2009 yielded a relative viability of 1.16.
Work on NCI-H1993 yielded a relative viability of 0.738.
Cell Line PC-14 has a relative viability of 1.04.
Cell Line LCLC-103H has a relative viability of 1.05.
NCI-H596 showed a relative viability of 1.14.
NCI-H2228 showed a relative viability of 0.957.
Cell Line Calu-6 has a relative viability of 0.98.
With HCC-366 the relative viability was 0.624.
IA-LM showed a relative viability of 0.646.
A549 gave a relative viability of 0.527.
Work on HCC-78 yielded a relative viability of 0.445.
NCI-H1299 was tested, and the relative viability was 1.01.
NCI-H1563 gave a relative viability of 1.07.
For ABC-1, the relative viability was 0.861.

Source: the supplement of paper PMC10307832
